Test results: PMC10469688, “Comparative pharmacokinetics and safety evaluation of high dosage regimens of Andrographis paniculata aqueous extract after single and multiple oral administration in healthy participants” (Frontiers in Pharmacology, 2023)
Read-outs that look alike come from different tables or passages of the source.

What was measured:
[1] = Plasma pharmacokinetics after single and multiple oral administration of A. paniculata aqueous extract capsules in healthy participants (HPLC-MS/MS, non-compartmental analysis); type: in vivo, human; settings: for CL/F / AUC(0-t) / MRT / Vd/F / half-life / Tmax / AUC(0-inf) / Cmax: human; for CL/F / AUC(0-t) / MRT / Vd/F / half-life / Tmax / AUC(0-inf): plasma; for MRT: read-out: MRT; for Vd/F: read-out: Vd/F; for Tmax: read-out: Tmax; for AUC(0-inf): read-out: AUC(0-inf); for Cmax: read-out: Cmax
Procedure: (§1) An opened-label, two-dosage, single- and multiple-oral dosing, single center, phase I safety and pharmacokinetic study was conducted in healthy participants while they were under a fasting condition. […] Two weeks prior to the beginning of the clinical study, the volunteers were advised to abstain from other dietary supplements, herbal products, or any concomitant medicines. During the period of the study, no other medications were allowed. All participants fasted overnight for at least 8 h before drug administration. The study conducted a single-dose investigation on day 1 by oral administering A. paniculata extract capsules once in both groups. Twelve participants in group 1 received 3 capsules orally (equivalent to 60 mg of andrographolide) with 240 mL of water, while another twelve participants in group 2 received 6 capsules (equivalent to 120 mg of andrographolide). This was followed by serial blood sampling for up to 24 h after dosing. For blood collection, 6 mL of venous blood in EDTA tube was collected via a forearm vein catheter at each time point including pre-dose (0 h), and post-dose after oral administration (T 0.167, 0.333, 0.5, 0.75, 1, 1.5, 2, 4, 6, 8, 10, 12 and 24 h). Subsequently, observation of elimination continued until 48 h post-dose to ensure complete excretion of the major active diterpenoids through urine. Urine samples were collected at day 0 (the day prior to dosing) and day 1–2 (T 0–4, 4–8, 8–12,12–24, 24–32, 32–40, and 40–48 h after dosing). The study then proceeded to investigate multiple doses in both groups by administering continuous oral doses from day 3 until the morning of day 5. (dosing at T48, 56, 64, 72, 80, 88, and 96 h). In group 1, three capsules were administered orally before meals, three times a day (3 × 3 capsules at 8-h intervals, calculated as 180 mg/day of andrographolide); whereas in group 2, six capsules were administered daily, three times a day (6 × 3 capsules at 8-h intervals, calculated as 360 mg/day of andrographolide). For serial blood sampling of multiple doses, 6 mL of blood samples were collected starting in the morning of day 5 (sampling timepoints T 96, 96.167, 96.333, 96.5, 96.75, 97, 97.5, 98, 100, 102, and 104 h post dose).
(§2) All collected blood samples were centrifuged at 4,000 rpm, 4^οC, for 5 min. Plasma was collected and stored in cryotubes at −70^οC until analysis. Urine was kept as 10 mL aliquot samples at each time point and stored at −70^οC until analysis. Extraction was performed by protein precipitation method as previously reported ([Songvut et al., 2023]). Briefly, 50 µL of either a plasma or urine sample was mixed with 200 µL of methanol containing an internal standard (IS) of digoxin (50 ng/mL). Pretreated samples were vortexed for 10 min and were then centrifuged at 12,000 rpm, 4°C, for 10 min. The supernatants were filtered through a 0.2 µm PVDF membrane and were subsequently transferred to vials for HPLC-MS/MS analysis.
(§3) Hydrolysis of the glucuronidated and sulfated conjugates was conducted by enzymatic incubation as our previous published method ([Songvut et al., 2023]). To analyze the metabolic conjugations, 50 μL of either a plasma or urine sample was pre-incubated at 37^οC with 50 µL of either of β-glucuronidase in sodium phosphate buffer (pH 6.8) for 30 min, or sulfatase in sodium acetate buffer (pH 5) for 2 h. IS (50 ng/mL) was then added along with 150 μL of methanol to precipitate protein. The extracted samples were then vortexed and centrifuged at 12,000 rpm, 4^οC, for 10 min. The supernatants were collected by filtering through a 0.2-µm PVDF membrane before HPLC-MS/MS injection.
(§4) Analysis for the concentrations of targeted compounds in plasma and urine samples were carried out using HPLC-MS/MS at the Laboratory of Pharmacology, Chulabhorn Research Institute, Bangkok, Thailand. The quantitative determination was performed according to a previously validated method ([Songvut et al., 2023]). […]

[2] = Cumulative urinary excretion after single oral administration of A. paniculata aqueous extract capsules in healthy participants; type: in vivo, human; settings: for Cumulative urine: urine T 0–48 h
Procedure: as §1, §2, §3, §4

[3] = set-up: method as in Panossian et al., 2000; settings: previous pharmacokinetic studies; ref Panossian et al., 2000; cited from earlier work
[4] = multiple oral doses 60 mg × 3 times/day of andrographolide, n = 12, mean ± SD
[5] = multiple oral doses 60 mg × 3 times/day of andrographolide, n = 12, mean ± SD, read-out: AUC(0–8h)
[6] = multiple oral doses 60 mg × 3 times/day of andrographolide, n = 12, median [IQR]
[7] = multiple oral doses 120 mg × 3 times/day of andrographolide, n = 11, mean ± SD
[8] = multiple oral doses 120 mg × 3 times/day of andrographolide, n = 11, mean ± SD, read-out: AUC(0–8h)
[9] = multiple oral doses 120 mg × 3 times/day of andrographolide, n = 11, median [IQR]
[10] = single oral dose equivalent to 60 mg andrographolide, n = 12, mean ± SD
[11] = single oral dose equivalent to 60 mg andrographolide, n = 12, mean ± SD, read-out: AUC(0–24h)
[12] = single oral dose equivalent to 60 mg andrographolide, n = 12, median [IQR]
[13] = single oral dose equivalent to 120 mg andrographolide, n = 11, mean ± SD
[14] = single oral dose equivalent to 120 mg andrographolide, n = 11, mean ± SD, read-out: AUC(0–24h)
[15] = single oral dose equivalent to 120 mg andrographolide, n = 11, median [IQR]
[16] = multiple oral doses 60 mg × 3 times/day of andrographolide, plasma T 0–8 h, n = 12, mean ± SD
[17] = multiple oral doses 120 mg × 3 times/day of andrographolide, plasma T 0–8 h, n = 11, mean ± SD
[18] = single oral dose equivalent to 60 mg andrographolide, plasma T 0–24 h, n = 12, mean ± SD
[19] = single oral dose equivalent to 120 mg andrographolide, plasma T 0–24 h, n = 11, mean ± SD

Row | SMILES | CL/F [1, 4] [mL/min/kg] | AUC(0-t) [1, 5] [ng·h/mL] | MRT [1, 4] [h] | Vd/F [1, 4] [L/kg] | half-life [1, 6] [h] | Tmax [1, 6] [h] | CL/F [1, 7] [mL/min/kg] | AUC(0-t) [1, 8] [ng·h/mL] | MRT [1, 7] [h] | Vd/F [1, 7] [L/kg] | half-life [1, 9] [h] | Tmax [1, 9] [h] | CL/F [1, 10] [mL/min/kg] | AUC(0-inf) [1, 10] [ng·h/mL] | AUC(0-t) [1, 11] [ng·h/mL] | MRT [1, 10] [h] | Vd/F [1, 10] [L/kg] | half-life [1, 12] [h] | Tmax [1, 12] [h] | CL/F [1, 13] [mL/min/kg] | further results
1 | C=C1CC[C@@H]2[C@](C)(CO)[C@H](O)CC[C@@]2(C)[C@@H]1C/C=C1/C(=O)OC[C@H]1O [Andrographolide, andrographolide] | 75 | 195 ± 24 | 4.3 ± 0.99 | 18 ± 8 | 2.3 | 0.65 | 91.7 | 345 ± 48.8 | 3.4 ± 0.45 | 14.7 ± 3.7 | 1.7 | 0.8 | 81.7 | 210 ± 25.4 | 210 ± 25.4 | 6 ± 0.45 | 9 ± 1.66 | 1.3 | 0.8 | 100 | AUC(0-inf) [1, 13]: 345 ± 63.5 ng·h/mL; AUC(0-t) [1, 14]: 345 ± 63.5 ng·h/mL; MRT [1, 13]: 5.3 ± 0.63 h; Vd/F [1, 13]: 10.8 ± 1.6 L/kg; half-life [1, 15]: 1.2 h; Tmax [1, 15]: 0.8 h; Cmax [1, 16]: 85.9 ± 19 ng/mL; Cmax [1, 17]: 172 ± 54.4 ng/mL; Cmax [1, 18]: 72.1 ± 28.7 ng/mL; Cmax [1, 19]: 112 ± 33.4 ng/mL; Amount excreted in urine on doubling the oral dose ([2]; 60 vs 120 mg of andrographolide): nearly corresponding doubling; Cumulative urine [2, 10]: 372 ± 159 µg; Cumulative urine [2, 13]: 1,193±553 μg; Tmax [3]: 1.36 h
2 | C=C1CC[C@@H]2[C@](C)(CO[C@@H]3O[C@H](CO)[C@@H](O)[C@H](O)[C@H]3O)CCC[C@@]2(C)[C@@H]1CCC1=CCOC1=O [Neoandrographolide, neoandrographolide] | 65 | 69.7 ± 12.9 | 1.7 ± 0.22 | 3.4 ± 0.78 | 0.6 | 1 | 71.7 | 128 ± 29.1 | 1.9 ± 0.18 | 1.2 ± 0.29 | 0.19 | 1 | 36.7 | 41 ± 4.9 | 41 ± 4.9 | 1.8 ± 0.33 | 0.74 ± 0.16 | 0.23 | 0.9 | 88.3 | Detectability as conjugated metabolites in plasma ([1]; glucuronide and sulfate derivatives): less detectable; AUC(0-inf) [1, 4]: 69.7 ± 12.9 ng·h/mL; AUC(0-inf) [1, 7]: 128 ± 29.1 ng·h/mL; AUC(0-inf) [1, 13]: 104 ± 22.6 ng·h/mL; AUC(0-t) [1, 14]: 104 ± 22.6 ng·h/mL; MRT [1, 13]: 2.2 ± 0.22 h; Vd/F [1, 13]: 1.5 ± 0.33 L/kg; half-life [1, 15]: 0.19 h; Tmax [1, 15]: 0.8 h; Cmax [1, 16]: 34.8 ± 6.3 ng/mL; Cmax [1, 17]: 60.7 ± 12.2 ng/mL; Cmax [1, 18]: 24.4 ± 5.6 ng/mL; Cmax [1, 19]: 50.4 ± 19.2 ng/mL; Cumulative urine [2, 10]: 24.0 ± 18.1 µg; Cumulative urine [2, 13]: 66.7 ± 29.3 µg
